Reference: the NIST ThermoML archive (doi:10.1021/je200721d)

Assay: xn = mol fraction of the nth substance listed
Conditions: Liquid, Vibrating tube method

CCCCCCCC [octane] + CCCCCC
Conditions | mass density [kg/m3]
313.14 K, 18000 kPa, x2 = 0.1654 | 697.47
313.14 K, 18000 kPa, x2 = 0.5749 | 683.06
313.14 K, 18000 kPa, x2 = 0.7995 | 672.32
313.14 K, 18000 kPa, x2 = 0.9308 | 665.28
313.14 K, 19000 kPa, x2 = 0.1654 | 698.27
313.14 K, 19000 kPa, x2 = 0.5749 | 683.89
313.14 K, 19000 kPa, x2 = 0.7995 | 673.21
313.14 K, 19000 kPa, x2 = 0.9308 | 666.2
313.14 K, 20000 kPa, x2 = 0.1654 | 699.05
313.14 K, 20000 kPa, x2 = 0.5749 | 684.72
313.14 K, 20000 kPa, x2 = 0.7995 | 674.07
313.14 K, 20000 kPa, x2 = 0.9308 | 667.1
313.14 K, 21000 kPa, x2 = 0.1654 | 699.81
313.14 K, 21000 kPa, x2 = 0.5749 | 685.52
313.14 K, 21000 kPa, x2 = 0.7995 | 674.92
313.14 K, 21000 kPa, x2 = 0.9308 | 667.97
313.14 K, 22000 kPa, x2 = 0.1654 | 700.55
313.14 K, 22000 kPa, x2 = 0.5749 | 686.32
313.14 K, 22000 kPa, x2 = 0.7995 | 675.74
313.14 K, 22000 kPa, x2 = 0.9308 | 668.8
313.14 K, 23000 kPa, x2 = 0.1654 | 701.28
313.14 K, 23000 kPa, x2 = 0.5749 | 687.1
313.14 K, 23000 kPa, x2 = 0.7995 | 676.52
313.14 K, 23000 kPa, x2 = 0.9308 | 669.6
313.14 K, 24000 kPa, x2 = 0.1654 | 701.98
313.14 K, 24000 kPa, x2 = 0.5749 | 687.85
313.14 K, 24000 kPa, x2 = 0.7995 | 677.27
313.14 K, 24000 kPa, x2 = 0.9308 | 670.36
313.14 K, 25000 kPa, x2 = 0.1654 | 702.7
313.14 K, 25000 kPa, x2 = 0.5749 | 688.59
313.14 K, 25000 kPa, x2 = 0.7995 | 677.99
313.14 K, 25000 kPa, x2 = 0.9308 | 671.1
323.06 K, 1000 kPa, x2 = 0.5749 | 658.22
323.06 K, 2000 kPa, x2 = 0.5749 | 659.25
323.06 K, 3000 kPa, x2 = 0.5749 | 660.31
323.06 K, 4000 kPa, x2 = 0.5749 | 661.34
323.06 K, 5000 kPa, x2 = 0.5749 | 662.42
323.06 K, 6000 kPa, x2 = 0.5749 | 663.46
323.06 K, 7000 kPa, x2 = 0.5749 | 664.53
323.06 K, 8000 kPa, x2 = 0.5749 | 665.61
323.06 K, 9000 kPa, x2 = 0.5749 | 666.67
323.06 K, 10000 kPa, x2 = 0.5749 | 667.73
323.06 K, 11000 kPa, x2 = 0.5749 | 668.78
323.06 K, 12000 kPa, x2 = 0.5749 | 669.81
323.06 K, 13000 kPa, x2 = 0.5749 | 670.83
323.06 K, 14000 kPa, x2 = 0.5749 | 671.84
323.06 K, 15000 kPa, x2 = 0.5749 | 672.81
323.06 K, 16000 kPa, x2 = 0.5749 | 673.78
323.06 K, 17000 kPa, x2 = 0.5749 | 674.72
323.06 K, 18000 kPa, x2 = 0.5749 | 675.63
323.06 K, 19000 kPa, x2 = 0.5749 | 676.52
323.06 K, 20000 kPa, x2 = 0.5749 | 677.38
323.06 K, 21000 kPa, x2 = 0.5749 | 678.25
323.06 K, 22000 kPa, x2 = 0.5749 | 679.1
323.06 K, 23000 kPa, x2 = 0.5749 | 679.9
323.06 K, 24000 kPa, x2 = 0.5749 | 680.71
323.06 K, 25000 kPa, x2 = 0.5749 | 681.47
323.07 K, 1000 kPa, x2 = 0.2199 | 672.17
323.07 K, 2000 kPa, x2 = 0.2199 | 673.14
323.07 K, 3000 kPa, x2 = 0.2199 | 674.14
323.07 K, 4000 kPa, x2 = 0.2199 | 675.13
323.07 K, 5000 kPa, x2 = 0.2199 | 676.14
323.07 K, 6000 kPa, x2 = 0.2199 | 677.12
323.07 K, 7000 kPa, x2 = 0.2199 | 678.12
323.07 K, 8000 kPa, x2 = 0.2199 | 679.13
323.07 K, 9000 kPa, x2 = 0.2199 | 680.12
323.07 K, 10000 kPa, x2 = 0.2199 | 681.12
323.07 K, 11000 kPa, x2 = 0.2199 | 682.09
323.07 K, 12000 kPa, x2 = 0.2199 | 683.06
323.07 K, 13000 kPa, x2 = 0.2199 | 684.02
323.07 K, 14000 kPa, x2 = 0.2199 | 684.97
323.07 K, 15000 kPa, x2 = 0.2199 | 685.89
323.07 K, 16000 kPa, x2 = 0.2199 | 686.79
323.07 K, 17000 kPa, x2 = 0.2199 | 687.68
323.07 K, 18000 kPa, x2 = 0.2199 | 688.54
323.07 K, 19000 kPa, x2 = 0.2199 | 689.38
323.07 K, 20000 kPa, x2 = 0.2199 | 690.21
323.07 K, 21000 kPa, x2 = 0.2199 | 691.03
323.07 K, 22000 kPa, x2 = 0.2199 | 691.83
323.07 K, 23000 kPa, x2 = 0.2199 | 692.58
323.07 K, 24000 kPa, x2 = 0.2199 | 693.35
323.07 K, 25000 kPa, x2 = 0.2199 | 694.1
323.08 K, 1000 kPa, x2 = 0.1654 | 674.04
323.08 K, 2000 kPa, x2 = 0.1654 | 675.02
323.08 K, 3000 kPa, x2 = 0.1654 | 676
323.08 K, 4000 kPa, x2 = 0.1654 | 676.97
323.08 K, 5000 kPa, x2 = 0.1654 | 677.97
323.08 K, 6000 kPa, x2 = 0.1654 | 678.97
323.08 K, 7000 kPa, x2 = 0.1654 | 679.95
323.08 K, 8000 kPa, x2 = 0.1654 | 680.93
323.08 K, 9000 kPa, x2 = 0.1654 | 681.93
323.08 K, 10000 kPa, x2 = 0.1654 | 682.9
323.08 K, 11000 kPa, x2 = 0.1654 | 683.88
323.08 K, 12000 kPa, x2 = 0.1654 | 684.84
